{
  "source": "patent US20250281528A1",
  "about": "“GRAPHENE OXIDE-CATIONIC SILVER NANOCOMPOSITES AND THEIR USE AS BROAD-SPECTRUM ANTIMICROBIAL AGENTS” (priority 2020, published 2025)",
  "origin": "cited, not measured here",
  "conditions_in_all_cases": "literature values, refs in Table 6 footnotes",
  "key": {"Streptococcus pyogenes": {"test_system": "Streptococcus pyogenes"}, "Salmonella typhi": {"test_system": "Salmonella typhi"}, "Vibrio cholerae": {"test_system": "Vibrio cholerae"}, "Candida albicans": {"test_system": "Candida albicans"}},
  "data": [
    {"compound": "O=[N+]([O-])[O-].[Ag+]", "note": "[AgNO3, Silver Nitrate]", "values": [
      {"measurement": "MIC", "setting": "Streptococcus pyogenes", "result": "80 ^c μg/mL"},
      {"measurement": "MIC", "setting": "Salmonella typhi", "result": "110 ^c μg/mL"},
      {"measurement": "MIC", "setting": "Vibrio cholerae", "result": "70 ^c μg/mL"},
      {"measurement": "MIC", "setting": "Candida albicans", "result": "4.9 ^f μg/mL"}
    ]}
  ]
}
